The values that follow come from patent publication US20250152586A1, “PHARMACEUTICAL COMPOSITION FOR RELIEVING OR TREATING PAIN BY REGULATING CEREBELLAR GLIAL CELLS AND METHOD FOR RELIEVING OR TREATING PAIN” (Seoul National University R&DB Foundation, priority 2021, published 2025).

Counter-ions that a name gives are not always drawn.

The target in data set [1] is T1, hM4D (Gi) expressed in cerebellar glial cells (vermis lobule IV/V) (Homo sapiens, UniProt P08173, A203G/Y113C).
T1 construct: expressed in transfected cells; host or cells: mouse cerebellar glial cells (vermis lobule IV/V), transduced in vivo by virus
T1 sequence (P08173 1-479 Y113C/A203G): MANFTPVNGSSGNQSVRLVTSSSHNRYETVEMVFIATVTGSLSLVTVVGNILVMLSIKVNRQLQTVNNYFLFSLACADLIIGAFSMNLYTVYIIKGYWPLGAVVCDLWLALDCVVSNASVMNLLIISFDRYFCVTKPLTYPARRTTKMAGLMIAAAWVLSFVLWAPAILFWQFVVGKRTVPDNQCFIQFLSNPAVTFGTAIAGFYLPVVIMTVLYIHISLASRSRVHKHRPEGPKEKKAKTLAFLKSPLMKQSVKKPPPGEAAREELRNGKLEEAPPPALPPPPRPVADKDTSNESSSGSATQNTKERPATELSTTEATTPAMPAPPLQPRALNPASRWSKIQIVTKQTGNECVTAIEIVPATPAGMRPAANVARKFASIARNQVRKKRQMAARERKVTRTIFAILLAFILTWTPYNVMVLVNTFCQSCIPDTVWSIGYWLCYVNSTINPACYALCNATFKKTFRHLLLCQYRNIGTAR
Briefly: Capsaicin-induced pain licking time with chemogenetic inhibition of cerebellar glial cells (hM4D (Gi) activated by CNO). Type of data set: in vivo, mice. The following applies: CNO intraperitoneal 5 to 10 mg/kg, about 1 hour after, vs control, FIG. 2B.
Experimental: Using non-genetically modified wild-type mice, a specific chemogenetic inhibitory virus which targets cerebellar glial cells was injected. […] Therefore, CNO, an agonist capable of activating the corresponding virus, was injected intraperitoneally at a dose of 5 to 10 mg/kg. Behavioral experiments were performed about 1 hour after glial cells were inhibited (FIG. 2A).

In data set [2] the target is T2, hM4D (Gi) expressed in locus coeruleus cells (Homo sapiens, UniProt P08173, A203G/Y113C).
T2 construct: expressed in transfected cells; host or cells: mouse locus coeruleus cells, transduced in vivo by virus; agonist C21 applied at their axon terminals in the cerebellar cortex
T2 sequence (P08173 1-479 Y113C/A203G): T1 sequence (P08173 1-479 Y113C/A203G)
The data set can be described thus: Capsaicin-induced pain licking time with chemogenetic inhibition of the axon terminals of locus coeruleus cells in the cerebellum (hM4D (Gi) activated by C21). The format is in vivo, mice. To be noted: 0.5 μl of 1 mM C21 into cerebellar cortex via cannula (vermis lobule IV/V), hM4D (Gi) in LC, about 10 minutes after, vs control; FIG. 3B. Here is the method:
(§1) 1-2. Drug Injection For chemogenetic inhibition of cerebellar glial cells, CNO was injected intraperitoneally at a dose of 5 to 10 mg/kg. For chemogenetic inhibition of locus coeruleus cells, 0.5 μl of 1 mM C21 was directly injected into the cerebellar cortex through a cannula installed in cerebellar vermis lobule IV/V. Prazosin (100 μM, 0.5 μl) and muscimol (100 μM, 0.5 μl), which are alpha-1 adrenergic receptor inhibitors or GABAA agonists, were injected through cannulas targeting the cerebellar cortex and cerebellar nuclei, respectively.
(§2) To confirm the pain pattern caused by capsaicin, the degree of pain was recorded for a total of 30 minutes, 10 minutes before the injection of capsaicin and 20 minutes after the injection of capsaicin (FIG. 1B).
Using non-genetically modified wild-type mice, a specific chemogenetic inhibitory virus which targets locus coeruleus cells was injected. […] Further, in this case, to confirm that the inhibition of the axon terminals of the locus coeruleus only affected the pain pattern, basic motor function was measured using the ledge test and gait test described above in Example 1-3. […]

Data set [3] is described as follows: Basic motor function, ledge test and gait test. The format is in vivo, mice. To be noted: vs control. How it is done: To confirm whether basic behavioral patterns were affected when the activity of cerebellar glial cells was regulated, basic movements were measured by placing the mice in a chamber measuring 40 cm in length and width (FIG. 1D).
A ledge test was first performed to measure motor coordination. […] A score closer to 3 was determined to be normal, and a score closer to 0 was determined to be abnormal motor coordination. (FIG. 1E, ledge test).
A gait test was secondly performed to measure motor coordination. An experimenter measured the mouse's walking pattern without being observed. […] A score closer to 3 was determined to be normal, and a score closer to 0 was determined to be abnormal motor coordination (FIG. 1E, gait test).

The test system of the next data set is GABAA receptor. Briefly: Capsaicin-induced pain licking time after local injection of muscimol into the deep cerebellar nuclei. The format is in vivo, mice. To be noted: muscimol 100 μM, 0.5 μl, local into deep cerebellar nuclei (DCN) via cannula, 10 minutes after, vs control; FIG. 6B. Here is the method:
as §1, §2
Information processed in the cerebellar cortex converges to the cerebellar nuclei. To investigate the pain pattern induced by capsaicin when the cerebellar nuclei, the target of cerebellar output, were inhibited, the deep cerebellar nuclei (DCN) region was locally administered muscimol (100 μM, 0.5 μl), an inhibitory neurotransmitter GABAA receptor agonist, through a cannula. The licking time was measured 10 minutes after the injection when the effect of muscimol appeared (FIG. 6A).

In data set [4] the test system is alpha-1 adrenergic receptors in cerebellar glial cells. The data set can be described thus: Capsaicin-induced pain licking time after local injection of prazosin into the cerebellum. Type of data set: in vivo, mice. To be noted: prazosin 100 μM, 0.5 μl, local into cerebellum (vermis lobule IV/V) via cannula, about 10 minutes after, vs control; FIG. 4B. How it is done:
as §1, §2
Alpha-1 adrenergic receptors in cerebellar glial cells are activated by norepinephrine. To inhibit this, prazosin (100 μM, 0.5 μl), an alpha-1 adrenergic receptor antagonist, was locally injected only into the cerebellum (vermis lobule IV/V) via a cannula. Thereafter, behavioral experiments were performed about 10 minutes after the alpha-1 adrenergic receptors were inhibited (FIG. 4A).

Data set [5] deals with cerebellar glial cell-specific alpha-1 adrenergic receptors. Briefly: Capsaicin-induced pain licking time after knockdown with cerebellar glial cell-specific shRNA. Type of data set: in vivo. To be noted: Cre-dependent shRNA virus in Glast-Cre/ERT mice after tamoxifen, vs control; FIG. 5B. How it is done: Using non-genetically modified wild-type mice, a specific chemogenetic inhibitory virus which targets cerebellar glial cells and locus coeruleus cells was injected. To specifically remove alpha1-adrenergic receptors from cerebellar glial cells, using Glast-Cre (Tg(Slcla3-Cre/ERT) 1Nat/J), a genetically modified mouse in which Cre is expressed by tamoxifen specifically in only cerebellar glial cells, Cre was expressed by injecting tamoxifen, and then a virus that removes the alpha1-adrenergic receptor in a Cre-dependent manner was injected.
as §2
As another approach to prevent the activity of cerebellar glial cells, alpha-1 adrenergic receptors were inhibited using cerebellar glial cell-specific shRNA. To specifically remove alpha1-adrenergic receptors from cerebellar glial cells, using Glast-Cre (Tg(Slcla3-Cre/ERT) 1Nat/J), a genetically modified mouse in which Cre is expressed by tamoxifen specifically in only cerebellar glial cells, Cre was expressed by injecting tamoxifen, and then a virus that removes the alpha1-adrenergic receptor in a Cre-dependent manner was injected. Glast-cre (Tg(Slcla3-cre/ERT) 1 Nat/J) mice were purchased from Jackson Labs, USA. […]

With `C[N+]1([O-])CCN(C2=Nc3cc(Cl)ccc3Nc3ccccc32)CC1.Cl.Cl` [CNO, Clozapine N-oxide (CNO) dihydrochloride], the “licking time (pain induced by capsaicin)” value in data set [1] is on record as “significantly reduced”.
As for `Cl.Cl.c1ccc2c(c1)N=C(N1CCNCC1)c1ccccc1N2` [C21, DREADD agonist 21(Compound 21)], the “licking time (pain induced by capsaicin)” value in data set [2] is “significantly reduced”. The “basic motor performance (ledge test and gait test)” value (shortened to “basic motor performance”) in data set [3] (0.5 μl of 1 mM C21 into cerebellar cortex, hM4D (Gi) in LC, FIG. 3C) was “no significance difference”.
As to `NCc1cc(=O)[nH]o1` [muscimol, Muscimol], in the data set on GABAA receptor, the “licking time (pain induced by capsaicin)” value is on record as “significantly reduced”. For the same molecule, in data set [3] (muscimol 100 μM, 0.5 μl, local into DCN, FIG. 6C), the “basic motor performance” value is recorded as “no significance difference”.
As to `COc1cc2nc(N3CCN(C(=O)c4ccco4)CC3)nc(N)c2cc1OC` [prazosin, Prazosin hydrochloride], the “licking time (pain induced by capsaicin)” value in data set [4] is recorded as “significantly reduced”. The “basic motor performance” value in data set [3] (prazosin 100 μM, 0.5 μl, local into cerebellum, FIG. 4C) is listed as “no significance difference”.
Regarding “shRNA: Cre-dependent cerebellar glial cell-specific shRNA (534-558) against alpha-1 adrenergic receptor, GAGCCACACTTAGCTAACCATTTCA (guide GAGCCACACUUAGCUAACCAUUUCA)”, the “licking time (pain induced by capsaicin)” value in data set [5] was “significantly reduced”.
